Measured values reported in patent publication US20030114673A1, “2-AMINO-5,6-DIHALO-3,4-DIHYDROQUINAZOLINES WITH BLOOD PLATELET REDUCING PROPERTIES” (priority 2002, published 2003).
Structures can show the parent of a compound that is named as a salt.

Experiments:
[1] = Solubility in water; format: physicochemical; conditions: salt form as named
From the text: 2-Amino-5,6-dichloro-3,4-dihydroquinazoline (compound (E) wherein X and Y are both Cl) is the preferred compound for use in reducing the platelet count in patients and is preferably provided as the hydrobromide salt which is water soluble.

[2] = test system: circulating platelet levels; experiment: Daily intraperitoneal injection in mice, circulating platelet levels and safety; format: in vivo
Experimental: Administration of 100 μg/day of the preferred compound was sufficient to decrease platelet counts within 24-48 hours stabilizing to 50% of normal by day 5.

[3] = test system: megakaryocytic lineage; experiment: Inhibition of megakaryocytic endoreplication; format: cell-based
[4] = test system: CD15+ myeloid lineage; experiment: Effect on the CD15+ myeloid lineage in vitro; format: cell-based
[5] = test system: platelet aggregation; experiment: Platelet aggregation; format: cell-based; conditions: even at high concentrations (10 μg/mL)
[6] = Cardiovascular screening and side effect profile of the compound; format: in vivo
[7] = test system: platelet count; experiment: Platelet reducing properties; conditions: in vivo
[8] = In vitro metabolism of Anagrelide in rat liver microsomes; format: in vitro ADME
From the text: (§1) Metabolism of Anagrelide was examined in a number of in vitro systems including rat and human liver microsomes, human whole blood, human bone marrow cells and rat intestinal mucosa. […] It appears that in vivo metabolism occurs by a route that cannot be readily mimicked in vitro. It is hypothesized that the first step of in vivo metabolism involves hydroxylation of the carbon α to the carbonyl followed by amide hydrolysis and loss of the elements of glyoxylic acid.

[9] = In vitro metabolism of Anagrelide in human liver microsomes; format: in vitro ADME
From the text: as §1

[10] = In vitro metabolism of Anagrelide in human whole blood; format: in vitro ADME
From the text: as §1

[11] = In vitro metabolism of Anagrelide in human bone marrow cells; format: in vitro ADME
From the text: as §1

[12] = In vitro metabolism of Anagrelide in rat intestinal mucosa; format: in vitro ADME
From the text: as §1

[13] = set-up: species or system Rhesus Monkeys; conditions: rhesus monkey, in vivo
From the text: In a recent pharmacokinetic and excretion study of [^14C]

[14] = clinical use of Anagrelide; cited from earlier work
[15] = cited from earlier work

Compound: Br.NC1=Nc2ccc(Cl)c(Cl)c2CN1 [2-amino-5,6-dichloro-3,4-dihydroquinazoline hydrobromide]
- solubility in water [1]: water soluble
- circulating platelet levels ([2]; 6- to 8-month old mice, daily intraperitoneal injection): dose-dependent decrease
- time to decrease in platelet counts ([2]; mice, 100 μg/day intraperitoneal): 24 to 48 h
- platelet counts stabilized level ([2]; mice, 100 μg/day intraperitoneal, by day 5): 50 % of normal
- apparent signs of toxicity or haemorrhaging ([2]; mice, high doses (300 μg)): did not alter white blood cell counts, bleeding time or lead to any apparent signs of toxicity or haemorrhaging
- inhibition of megakaryocytic endoreplication [3]: profound inhibition
- dose for inhibition of megakaryocytic endoreplication relative to doses reported for Anagrelide ([3]; compared with those reported for Anagrelide): 500 times less
- effect on the CD15+ myeloid lineage [4]: no effect
- inhibition of platelet aggregation [5]: did not inhibit platelet aggregation

Compound: NC1=Nc2ccc(Cl)c(Cl)c2CN1 [2-amino-5,6-dichloro-3,4-dihydroquinazoline]
- antihypertensive activity ([6]; cardiovascular screening): Only very mild antihypertensive activity
- side effects of inotropy and haemorrhaging associated with Anagrelide ([6]; in vivo): without the side effects of inotropy and haemorrhaging
- reduction of platelet counts [7]: active molecule for causing reduction of platelet counts

Compound: O=C1CN2Cc3c(ccc(Cl)c3Cl)N=C2N1 [Anagrelide hydrochloride]
- solubility in water [1]: nearly insoluble in water

Compound: O=C1CN2Cc3c(ccc(Cl)c3Cl)N=C2N1 [Anagrelide, 6,7-dichloro-1,5-dihydroimidazo-[2,1-b]-quinazolin-2(3H)-one]
- metabolism in vitro [8]: completely resistant to metabolism
- metabolism in vitro [9]: completely resistant to metabolism
- metabolism in vitro [10]: completely resistant to metabolism
- metabolism in vitro [11]: completely resistant to metabolism
- metabolism in vitro [12]: completely resistant to metabolism
- detection of the human metabolite 2-amino-5,6-dichloro-3,4-dihydroquinazoline [13]: no human metabolite (2-amino-5,6-dichloro-3,4-dihydroquinazoline) was detected
- congestive heart failure (cardiovascular side effect incidence) [14]: 1.5%
- palpitations (cardiovascular side effect incidence) [14]: 26.1%
- tachycardia (cardiovascular side effect incidence) [14]: 7.5%
- vasodilation (cardiovascular side effect incidence) [14]: < 5%
- Anagrelide dose excreted as unchanged drug in the urine ([15]; human subjects): < 1%
- peak plasma concentrations of the parent drug ([15]; human subjects): 6 ng/mL
- urinary radioactivity accounted for by a minimum of four to five metabolites ([15]; human, in vivo): over 75%
